Measured values: patent US20100122362A1, “CELLS EXPRESSING ALPHA-SYNUCLEIN AND USES THEREFOR” (priority 2006, published 2010)

Assays:
TS217 cells [1] = assay: Calcein AM staining of live cells; assay type: cell-based; settings: Homo sapiens, 120 h; 0.1 μg/mL tetracycline, 5 days; read-out: number of viable cells decreased (calcein-positive cells)
Description: The cytotoxicity of alpha-synuclein overexpression in TS217 cells was also assessed using the membrane-permeable dye, calcein AM. TS217 cells were plated on glass tissue culture chamber slides coated with poly-L-lysine and cultured in the absence (Control) or presence (Induced) of 0.1 μg/mL tetracycline for 5 days to induce alpha-synuclein expression. Cells were treated with 2 μM calcein AM and the fluorescence of enzyme-activated calcein AM (in live cells) was visualized using a fluorescent microscope (Olympus, Center Valley, Pa.) fitted with a digital camera controlled by the Metamorph program (Universal Imaging, West Chester, Pa.). Calcein-positive cells were quantitated using Metamorph software (Universal Imaging, West Chester, Pa.) (FIG. 4A).

TS217 cells [2] = tested on: TS217 cells
Description: To determine the effect of overexpression of wild-type alpha-synuclein on cell viability using the stable, inducible system, TS217 cells were treated with 0.1 μg/mL tetracycline for three to six days to induce expression of alpha-synuclein. The relative viability of the cells was assessed at one day intervals (day 3, day 4, day 5, and day 6) by measuring the cellular ATP level in cell lysates using a ViaLight® Plus Bioassay kit (Cambrex, Rockland, Me.). Relative cell viability was calculated as the ratio of induced cells to control cells (cells not treated with tetracycline), as an indication of alpha-synuclein-induced cytotoxicity (see FIG. 3).
To determine whether the effect of tetracycline on cell viability was concentration-dependent, TS217 cells grown in 96 well plates were incubated with different concentrations of tetracycline for six days. Following treatment, each of the experimental cell groups were lysed and the cellular ATP measured as described above. Media with the vehicle alone (no tetracycline) served as control (FIG. 5). […]

TS217 cells [3] = assay: GM130 immunostaining of intact Golgi; assay type: cell-based, human; settings: 0.1 μg/mL tetracycline, six day induction
Description: TS217 cells were plated on glass tissue culture chamber slides coated with poly-L-lysine and incubated for six days in the absence (Control) or presence of 0.1 μg/mL tetracycline (Induced) to induce alpha-synuclein expression. Following treatment, cells were fixed with 4% paraformaldehyde supplemented with 4% sucrose in phosphate-buffered saline, permeabilized with 0.2% triton in PBS, and stained with antibodies specific for the cis-Golgi tethering protein GM130 (FIG. 6A). The number of cells containing intact Golgi was reduced by almost 80% following the six day induction of alpha-synuclein (FIG. 6B).

| SMILES | cytotoxicity at 0.1 µg/mL (TS217 cells [1]) | Relative cell viability decreased (ratio of induced cells to control cells) (TS217 cells [2]; 0.1 μg/mL tetracycline, from day 3 to day 6, no other toxicity-inducing agents) | number of cells containing intact Golgi reduced (TS217 cells [3]) | Relative viability (ATP, ratio of induced to control), effect on alpha-synuclein-induced toxicity (TS217 cells [2]; 0.08, 0.15, 0.3 μM compound, with tetracycline induction for 5 days, FIG. 9) |
| --- | --- | --- | --- | --- |
| CN(C)[C@@H]1C(O)=C(C(N)=O)C(=O)[C@@]2(O)C(O)=C3C(=O)c4c(O)cccc4[C@@](C)(O)[C@H]3C[C@@H]12 [tetracycline] | ~60% | over 50% | ~80% | – |
| CC(C)(C)n1nc(-c2ccc(Cl)cc2)c2c(N)ncnc21 [Cmp J, 1-t-Butyl-3-(4-chloro-phenyl)-1H-pyrazolo[3,4-d]pyrimidin-4-ylamine] | – | – | – | rescue of alpha-synuclein-induced toxicity |
